Test results reported in US11072616B2, “Cyclic peptides targeting alpha-4-beta-7 integrin” (Zealand Pharma A/S, priority 2015, dated 2021).

Assays:
Aqueous solubility assay = format: physicochemical; details: PBS pH 7.4, 4 h, room temperature; for Determined concentration Mean: mean of 3, maximal concentration evaluated 200, 500 or 1000 μM; for Determined concentration Rep 1: replicate 1; for Determined concentration Rep 2: replicate 2; for Determined concentration Rep 3: replicate 3
Experimental: Solutions were incubated for four hours at room temperature and stirred at 600 rpm and run in triplicate. Centrifugation was performed for 15 minutes at 6000 rpm and solution concentration was determined using HPLC-UV (photodiode array detector acquiring between 220 nm, and 300 nm wavelengths).

integrin α4β7 = target: T1, integrin α4β7 (Homo sapiens, UniProt P13612+P26010); experiment: Integrin α4β7—MAdCAM-1 competition assay (ELISA); format: binding; details: ratio a4b1 ELISA IC50 / a4b7 ELISA IC50
T1 sequence (P13612 34-977 limits assumed): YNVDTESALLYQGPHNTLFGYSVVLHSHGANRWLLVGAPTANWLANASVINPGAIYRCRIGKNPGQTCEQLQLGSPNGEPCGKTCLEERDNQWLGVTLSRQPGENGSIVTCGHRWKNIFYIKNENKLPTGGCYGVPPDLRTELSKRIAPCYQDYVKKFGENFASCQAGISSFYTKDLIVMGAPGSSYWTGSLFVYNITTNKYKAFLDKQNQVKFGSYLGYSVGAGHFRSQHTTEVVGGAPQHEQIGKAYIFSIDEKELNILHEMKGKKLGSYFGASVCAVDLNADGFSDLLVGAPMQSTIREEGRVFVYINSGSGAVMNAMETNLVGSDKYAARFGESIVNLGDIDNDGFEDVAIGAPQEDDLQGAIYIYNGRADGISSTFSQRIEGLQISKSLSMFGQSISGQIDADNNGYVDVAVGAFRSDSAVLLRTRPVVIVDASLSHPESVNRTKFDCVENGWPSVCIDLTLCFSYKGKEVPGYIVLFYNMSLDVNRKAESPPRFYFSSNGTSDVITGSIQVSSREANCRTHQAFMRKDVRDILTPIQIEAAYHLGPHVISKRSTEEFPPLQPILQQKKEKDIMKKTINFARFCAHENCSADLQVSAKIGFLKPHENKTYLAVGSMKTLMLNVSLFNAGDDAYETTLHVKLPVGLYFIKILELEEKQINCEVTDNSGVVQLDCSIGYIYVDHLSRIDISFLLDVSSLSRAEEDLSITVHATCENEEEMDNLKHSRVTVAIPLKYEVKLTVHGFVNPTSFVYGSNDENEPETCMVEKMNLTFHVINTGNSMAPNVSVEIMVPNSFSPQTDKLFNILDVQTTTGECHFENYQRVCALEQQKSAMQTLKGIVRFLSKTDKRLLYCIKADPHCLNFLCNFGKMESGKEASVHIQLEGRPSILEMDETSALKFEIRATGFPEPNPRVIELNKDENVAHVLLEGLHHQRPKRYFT
T1 sequence (P26010 20-723 limits assumed): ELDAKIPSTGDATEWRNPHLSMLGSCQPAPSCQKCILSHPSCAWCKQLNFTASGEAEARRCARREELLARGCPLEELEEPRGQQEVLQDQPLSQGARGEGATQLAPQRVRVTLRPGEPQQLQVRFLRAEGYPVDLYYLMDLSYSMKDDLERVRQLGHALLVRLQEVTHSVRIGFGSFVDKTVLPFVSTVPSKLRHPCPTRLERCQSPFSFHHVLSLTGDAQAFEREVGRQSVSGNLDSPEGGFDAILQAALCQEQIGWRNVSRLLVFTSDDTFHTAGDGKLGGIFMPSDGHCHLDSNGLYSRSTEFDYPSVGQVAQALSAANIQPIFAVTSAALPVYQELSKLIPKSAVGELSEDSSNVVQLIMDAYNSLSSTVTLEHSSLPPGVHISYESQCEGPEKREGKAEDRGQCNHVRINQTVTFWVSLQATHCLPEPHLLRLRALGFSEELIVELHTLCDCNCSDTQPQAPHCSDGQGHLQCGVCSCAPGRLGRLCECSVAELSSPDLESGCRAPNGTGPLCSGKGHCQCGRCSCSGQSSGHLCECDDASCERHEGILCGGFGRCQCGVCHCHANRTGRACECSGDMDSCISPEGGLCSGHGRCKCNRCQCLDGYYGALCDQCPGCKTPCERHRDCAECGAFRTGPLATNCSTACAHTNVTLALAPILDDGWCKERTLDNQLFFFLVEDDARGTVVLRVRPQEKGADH
Outline: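 Competitive ELISA in which serially diluted compound was incubated with the receptor system for 2 h at room temperature to equilibrium. Wash buffer contained 1 mM MnCl2. Bound Fc-tagged partner was detected with anti-human IgG Fc-HRP and TMB.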

Structure (SMILES) | Determined concentration Mean (Aqueous solubility assay) [µM] | Determined concentration Rep 1 (Aqueous solubility assay) [µM] | Determined concentration Rep 2 (Aqueous solubility assay) [µM] | Determined concentration Rep 3 (Aqueous solubility assay) [µM] | Selectivity ELISA (integrin α4β7)
CC(C)C[C@@H]1NC(=O)[C@H](Cc2ccc(O)cc2)NC(=O)[C@H](C)NC(=O)[C@@H]2CCCN2[C@H](C(=O)NC(C)(C)C)[C@H](C)NC(=O)[C@H]([C@@H](C)O)NC(=O)[C@H](CC(=O)O)NC1=O [UM0134830-01] | 1000.0 | 1012.0 | 1016.4 | 971.7 | 
CC(C)C[C@@H]1NC(=O)CNC(=O)[C@H](Cc2ccc(O)cc2)NC(=O)[C@@H]2CCCN2[C@H](C(=O)NC(C)(C)C)[C@H](C)NC(=O)[C@H]([C@@H](C)O)NC(=O)[C@H](CC(=O)O)NC1=O [UM0134677-01] | 224.6 | 225.4 | 230.6 | 217.8 | 
CC(C)C[C@@H]1NC(=O)C2(Cc3ccccc3C2)NC(=O)[C@@H]2CCCN2[C@H](C(=O)NC(C)(C)C)[C@H](C)NC(=O)[C@H]([C@@H](C)O)NC(=O)[C@H](CC(=O)O)NC1=O [UM0132369-01] | 882.5 | 874.4 | 885.9 | 887.3 | 14.4
C=CCOc1ccc(C[C@@H]2NC(=O)[C@@H]3CCCN3[C@H](C(=O)NC(C)(C)C)[C@H](C)NC(=O)[C@H]([C@@H](C)O)NC(=O)[C@H](CC(=O)O)NC(=O)[C@H](CC(C)C)NC2=O)cc1 [UM0132371-01] | 834.5 | 786.7 | 837.3 | 879.6 | 
CC(C)C[C@@H]1NC(=O)C2(CCCC2)NC(=O)[C@@H]2CCCN2[C@H](C(=O)NC(C)(C)C)[C@H](C)NC(=O)[C@H]([C@@H](C)O)NC(=O)[C@H](CC(=O)O)NC1=O [UM0132368-01] | 926.3 | 926.3 | 917.9 | 934.3 | 14.9
CC(C)C[C@@H]1NC(=O)[C@H](Cc2ccc(O)cc2)NC(=O)[C@@H]2CCCN2[C@H](C(=O)NC(C)(C)C)[C@H](C)NC(=O)[C@H]([C@@H](C)O)NC(=O)[C@H](CC(=O)O)NC1=O [UM0131995-05] | 898.5 | 883.9 | 897.3 | 914.7 | 
CC(C)C[C@@H]1NC(=O)[C@@H](Cc2ccncc2)NC(=O)[C@@H]2CCCN2[C@H](C(=O)NC(C)(C)C)[C@H](C)NC(=O)[C@H]([C@@H](C)O)NC(=O)[C@H](CC(=O)O)NC1=O [UM0134700-01] | 994.5 | 1044.8 | 933.2 | 950.6 | 
CC(C)C[C@@H]1NC(=O)[C@H](CCCN)NC(=O)[C@@H]2CCCN2[C@H](C(=O)NC(C)(C)C)[C@H](C)NC(=O)[C@H]([C@@H](C)O)NC(=O)[C@H](CC(=O)O)NC1=O [UM0132377-01] | 218.6 | 225.7 | 218.9 | 211.2 | 
CC(C)C[C@@H]1NC(=O)[C@@H](Cc2ccc(O)cc2)NC(=O)[C@@H]2CCCN2[C@H](C(=O)NC(C)(C)C)[C@H](C)NC(=O)[C@H]([C@@H](C)O)NC(=O)[C@H](CC(=O)O)NC1=O [UM0132375-02] | 954.5 | 966.6 | 960.0 | 936.8 | 
CSCC[C@@H]1NC(=O)[C@@H]2CCCN2[C@H](C(=O)NC(C)(C)C)[C@H](C)NC(=O)[C@H]([C@@H](C)O)NC(=O)[C@H](CC(=O)O)NC(=O)[C@H](CC(C)C)NC1=O [UM0132374-01] | 183.1 | 179.4 | 184.0 | 185.9 | 
CC(C)C[C@@H]1NC(=O)[C@H](CCCCN)NC(=O)[C@@H]2CCCN2[C@H](C(=O)NC(C)(C)C)[C@H](C)NC(=O)[C@H]([C@@H](C)O)NC(=O)[C@H](CC(=O)O)NC1=O [UM0132376-01] | 962.9 | 990.7 | 958.6 | 939.5 | 
CC(C)C[C@@H]1NC(=O)c2cccc(c2)CNC(=O)[C@@H]2CCCN2[C@H](C(=O)NC(C)(C)C)[C@H](C)NC(=O)[C@H]([C@@H](C)O)NC(=O)[C@H](CC(=O)O)NC1=O [UM0134690-01] | 942.9 | 957.3 | 950.5 | 920.8 | 8.7
CC(C)C[C@@H]1NC(=O)C[C@H](CCCCN)NC(=O)CN(Cc2ccccc2)C(=O)[C@@H]2CCCN2[C@H](C(=O)NC(C)(C)C)[C@H](C)NC(=O)[C@H]([C@@H](C)O)NC(=O)[C@H](CC(=O)O)NC1=O [Compound 296] |  |  |  |  | 94.8
CC(C)C[C@@H]1NC(=O)[C@H]2C[C@@H](O)CN2C(=O)[C@H](Cc2ccc(O)cc2)NC(=O)[C@@H]2CCCN2[C@H](C(=O)NC(C)(C)C)[C@H](C)NC(=O)[C@H]([C@@H](C)O)NC(=O)[C@H](CC(=O)O)NC1=O [Compound 141] |  |  |  |  | 2.0
CC(C)C[C@@H]1NC(=O)[C@@H]2CCCN2C(=O)[C@@H]2CCCN2[C@H](C(=O)NC(C)(C)C)[C@H](C)NC(=O)[C@H]([C@@H](C)O)NC(=O)[C@H](CC(=O)O)NC1=O [UM0132366-01] | 467.8 | 474.2 | 477.4 | 451.9 | 
CC[C@H](C)[C@@H]1NC(=O)[C@H](CC(=O)O)NC(=O)[C@H](CC(C)C)NC(=O)[C@H](Cc2c[nH]c3ccccc23)NC(=O)[C@@H]2CCCN2[C@H](C(=O)NC(C)(C)C)[C@H](C)NC1=O [Compound 8] |  |  |  |  | 0.9
CC[C@@H](C)[C@@H]1NC(=O)[C@H](CC(=O)O)NC(=O)[C@H](CC(C)C)NC(=O)C[C@H](CCCCN)NC(=O)[C@H](Cc2ccc(CN)cc2)NC(=O)[C@@H]2CCCN2[C@H](C(=O)NC(C)(C)C)[C@H](C)NC1=O [Compound 285] |  |  |  |  | 6.2
CC(C)C[C@@H]1NC(=O)[C@H](Cc2cscn2)NC(=O)[C@@H]2CCCN2[C@H](C(=O)NC(C)(C)C)[C@H](C)NC(=O)[C@H]([C@@H](C)O)NC(=O)[C@H](CC(=O)O)NC1=O [UM0132370-01] | 183.2 | 187.0 | 182.4 | 180.2 | 
